Source: ChEMBL document CHEMBL1154643, “Biaryl purine derivatives as potent antiproliferative agents: inhibitors of cyclin dependent kinases. Part I” (Bioorg Med Chem Lett, 2009)

Experiments:
[1] = Antiproliferative activity against human HeLaS3 cells by sulforhodamine B assay; type: functional; details: HeLa S3
[2] = molecular target: Cyclin-dependent kinase 2/cyclin A (Homo sapiens, UniProt P24941); assay: Inhibition of recombinant CDK2/cyclin A; type: protein-complex assay
[3] = molecular target: Cyclin-dependent kinase 2/cyclin E (Homo sapiens, UniProt P24941); assay: Inhibition of recombinant CDK2/cyclin E; type: protein-complex assay

| SMILES | IC50 [2] [nM] | IC50 [3] [nM] | GI50 [1] [nM] |
| --- | --- | --- | --- |
| CC[C@H](CO)Nc1nc(NCc2ccc(-c3ccccc3)cc2)c2ncn(C(C)C)c2n1 | – | – | 400 |
| Cc1ccc(-c2ccc(CNc3nc(N[C@H]4CC[C@H](N)CC4)nc4c3ncn4C(C)C)cc2)cc1 | 400 | 200 | – |
| CC(C)n1cnc2c(NCc3ccc(-c4ccccc4)cc3)nc(N[C@H]3CC[C@H](NS(=O)(=O)C(F)(F)F)CC3)nc21 | > 5000 | > 5000 | – |
| Cc1ccc(-c2ccc(CNc3nc(N[C@H]4CC[C@H](N)CC4)nc4c3ncn4C(C)C)cc2)cc1C | 500 | 250 | – |
| CC(C)n1cnc2c(NCc3ccc(-c4ccccc4)cc3)nc(N3CCC(C(N)=O)CC3)nc21 | > 5000 | > 5000 | – |
| CC(C)n1cnc2c(NCc3ccc(-c4ccccc4)cc3)nc(NCCCN)nc21 | 3000 | 400 | – |
| CCN(CC)[C@H]1CC[C@H](Nc2nc(NCc3ccc(-c4ccccc4)cc3)c3ncn(C(C)C)c3n2)CC1 | 6000 | 3000 | – |
| CC(C)n1cnc2c(NCc3ccc(-c4ccccc4)cc3)nc(N[C@H]3CC[C@H](NC(=O)CC4CC4)CC3)nc21 | 600 | 300 | – |
| CCCCN[C@H]1CC[C@H](Nc2nc(NCc3ccc(-c4ccccc4)cc3)c3ncn(C(C)C)c3n2)CC1 | 1000 | 300 | – |
| CC(C)n1cnc2c(NCc3ccc(-c4ccccc4)cc3)nc(NC[C@H](C)NC(=O)OC(C)(C)C)nc21 | 1000 | 800 | – |
| CC(C)n1cnc2c(NCc3ccc(-c4ccccc4)cc3)nc(N3CCC(N)C3)nc21 (centres undefined) | 3000 | 3000 | – |
| Cn1cnc2c(NCc3ccc(-c4ccccc4)cc3)nc(N[C@H]3CC[C@H](N)CC3)nc21 | 1000 | 800 | – |
| CC(C)n1cnc2c(NCc3ccc(-c4ccccc4)cc3)nc(NC[C@H](C)N)nc21 | 2000 | 900 | – |
| Cc1cc(C)cc(-c2ccc(CNc3nc(N[C@H]4CC[C@H](N)CC4)nc4c3ncn4C(C)C)cc2)c1 | 400 | 200 | – |
| CC(C)n1cnc2c(NCc3ccc(-c4ccccc4)cc3)nc(NCCCCN)nc21 | 3000 | 3000 | – |
| CC(C)n1cnc2c(NCc3ccc(-c4cccc(Cl)c4)cc3)nc(N[C@H]3CC[C@H](N)CC3)nc21 | 400 | 400 | – |
| COc1cccc(-c2ccc(CNc3nc(N[C@H]4CC[C@H](N)CC4)nc4c3ncn4C(C)C)cc2)c1 | 350 | 150 | – |
| CC(Nc1nc(N[C@H]2CC[C@H](N)CC2)nc2c1ncn2C(C)C)c1ccc(-c2ccccc2)cc1 (some centres undefined) | 5000 | 4000 | – |
| N[C@H]1CC[C@H](Nc2nc(NCc3ccc(-c4ccccc4)cc3)c3ncn(C4CCCC4)c3n2)CC1 | 100 | 90 | – |
| Cc1cccc(-c2ccc(CNc3nc(N[C@H]4CC[C@H](N)CC4)nc4c3ncn4C(C)C)cc2)c1 | 300 | 200 | – |
| CC(C)n1cnc2c(NCc3ccc(-c4ccccc4Cl)cc3)nc(N[C@H]3CC[C@H](N)CC3)nc21 | 1000 | 600 | – |
| CC(C)n1cnc2c(NCc3ccc(-c4ccccc4)cc3)nc(N3CCC(CN)CC3)nc21 | 4000 | 1000 | – |
| Cn1cnc2c(NCc3ccccc3)nc(NCCO)nc21 [OLOMOUCINE] | – | – | 65000 |
| CC[C@H](CO)Nc1nc(NCc2ccccc2)c2ncn(C(C)C)c2n1 [SELICICLIB] | – | – | 20000 |

Now from value to compound, other results behind:

| IC50 [2] [nM] | IC50 [3] [nM] | SMILES | GI50 [1] [nM] |
| --- | --- | --- | --- |
| 2000 | 900 | CC(C)n1cnc2c(NCc3ccc(-c4ccccc4)cc3)nc(N[C@@H]3CCCC[C@H]3N)nc21 | – |
| 900 | 300 | CC(C)n1cnc2c(NCc3ccc(-c4ccccc4)cc3)nc(N[C@H]3CC[C@H](NCC4CC4)CC3)nc21 | – |
| 500 | 300 | CC(=O)N[C@H]1CC[C@H](Nc2nc(NCc3ccc(-c4ccccc4)cc3)c3ncn(C(C)C)c3n2)CC1 | – |
| 900 | 400 | CC(C)n1cnc2c(NCc3ccc(-c4ccccc4)cc3)nc(N[C@@H]3CCCC[C@@H]3N)nc21 | – |
| 400 | 400 | CC(C)n1cnc2c(NCc3ccc(-c4ccccc4)cc3)nc(N[C@H]3CC[C@H](O)CC3)nc21 | – |
| 600 | 500 | CC(C)n1cnc2c(NCc3ccc(-c4ccccc4)cc3)nc(NCCN)nc21 | – |
| 500 | 200 | CCC(=O)N[C@H]1CC[C@H](Nc2nc(NCc3ccc(-c4ccccc4)cc3)c3ncn(C(C)C)c3n2)CC1 | – |
| 1000 | 900 | CC(C)n1cnc2c(NCc3ccc(-c4ccccc4)cc3)nc(NC3CCCC(N)C3)nc21 (centres undefined) | – |
| 2000 | 600 | CC(C)n1cnc2c(NCc3ccc(-c4ccccc4)cc3)nc(NC3(CO)CCCC3)nc21 | – |
| 4000 | 2500 | CC(C)n1cnc2c(NCc3ccc(-c4ccccc4)cc3)nc(NCC3CCNCC3)nc21 | – |
| 500 | 200 | CC(C)n1cnc2c(NCc3ccc(-c4ccccc4)cc3)nc(N[C@H]3CC[C@H](NS(C)(=O)=O)CC3)nc21 | – |
| 500 | 400 | CCCN[C@H]1CC[C@H](Nc2nc(NCc3ccc(-c4ccccc4)cc3)c3ncn(C(C)C)c3n2)CC1 | – |
| 1000 | 800 | CC(C)n1cnc2c(NCCc3ccc(-c4ccccc4)cc3)nc(N[C@H]3CC[C@H](N)CC3)nc21 | 5000 |
| 3000 | 1000 | CCN[C@H]1CC[C@H](Nc2nc(NCc3ccc(-c4ccccc4)cc3)c3ncn(C(C)C)c3n2)CC1 | – |
